Assay results taken from US20080200412A1, “Astrocyte Elevated Gene-1 And Its Promoter In Treatments For Neurotoxicity And Malignancy” (priority 2005, published 2008).

What was measured:
[1] = system: AEG-1 promoter; assay: AEG-1 promoter luciferase reporter in CREF and CREF-ras fibroblasts; type: cell-based, rat
Excerpt: (§1) Construction of plasmids: The full-length AEG-1 promoter DNA used in this analysis has a 3′ boundary 1 base-pair 5′ to the translation initiation site (ATG codon) of the AEG-1 gene (designated as nucleotide 1 in FIG. 7; SEQ ID NO:2) and extends 2759 bp upstream. The genomic DNA region corresponding to the AEG-1 promoter was isolated by PCR using the PCRx Enhancer System (Invitrogen, Carlsbad, Calif.) with forward primer: 5′-[…] -3′ (KpnI site underlined) (SEQ ID NO:4) and reverse primer: 5′-[…]-3′ (XhoI site underlined) 9SEQ ID NO:5). PCR conditions were as follows: Denaturation 95° C., 30 sec; annealing 55° C., 30 sec and extension 68° C., 3 min, repeated for 30 cycles. This region of genomic DNA was cloned into the luciferase reporter pGL-3 basic (Promega, Madison, Wis.) using restriction sites in KpnI and XhoI in the plasmid polylinker.
(§2) Transient transfection and luciferase assay. CREF, CREF-ras, FM516, FM516-ras, THV and THR cells were plated on 24-well plates one day prior to transfection. […] Luciferase activity was measured and normalized against β-galactosidase activity produced by a co-transfected vector as described (17). […]
(§3) Effect of inhibition of PI3 Kinase, MEK kinase and p38 MAP kinase on AEG-1 promoter activity. Signal transduction pathways impinging on or directly downstream of the RAS pathway were analyzed to determine their effect on AEG-1 promoter activity (FIGS. 13 A-E). […]

[2] = system: AEG-1 promoter; assay: AEG-1 promoter luciferase reporter in THV/THR astrocytes; type: cell-based, human
Excerpt: as §1, §2, §3

[3] = system: AEG-1 promoter; assay: AEG-1 promoter luciferase reporter in C2 and C10 cell lines; type: cell-based, human
Excerpt: as §1
Cell treatment with inhibitors. The PI3 kinase inhibitor LY294002, MEK inhibitor PD 98059 and p38 MAP Kinase inhibitor SB 203580 were used to treat cells at the indicated concentration and to determine the effect of inhibition of the respective pathway on AEG-1 promoter activity using the AEG-1 luciferase reporter.
The colorectal cancer cell line HCT116 which is mutated in the k-RAS gene was also tested for AEG-1 promoter activity in addition to two related cell lines. […]

[4] = system: U87-MG cells; assay: Soft agar cloning efficiency; type: cell-based, human; conditions: transient transfection vs control scrambled siRNA
Experimental: (§4) Soft agar colony formation and Matrigel invasion assay. FM-516SV cells (2×10^5 cells/6-cm plate) plated the previous day were transfected with either pcDNA3.1, pcDNA3.1 AEG-1, T24 Ha-ras (20 μg each), or AEG-1/T24 Ha-ras (10+10 μg). Two days later, transfected cells were harvested by trypsinization and re-plated in soft agar (0.4%) overlaying 0.8% base agar. Two weeks later, colonies over ˜50 cells in soft agar were identified microscopically and counted. Soft agar colony formation assay was also performed with FM-516SV AEG-1 stable transfectants established by transfection of pcDNA3.1 AEG-1 and T24 Ha-ras and G418 selection.
(§5) Effect of inhibition of AEG-1 on anchorage independent growth of malignant glioma cells. U87-MG and U251-MG cells were transiently transfected with siRNA for the AEG-1 gene and control scrambled siRNA using Lipofectamine. 24 hours after transfection 1×10^5 cells from the transfection mixture were replated to determine agar cloning efficiency. In parallel, cell extracts were prepared for western blot analysis.

[5] = system: U251-MG cells; assay: Soft agar cloning efficiency; type: cell-based, human; conditions: transient transfection vs control scrambled siRNA
Experimental: as §4, §5

[6] = system: U87-MG cells; assay: Matrigel invasion assay (Transwell); type: cell-based, human; conditions: 72 h, vs control scrambled siRNA
Experimental: (§6) Matrigel invasion assay. Cell were cultured, transfected and harvested essentially as described above for soft-agar colony formation assays. Cells were mixed with Matrigel and plated on […] pore-size tissue culture inserts. After 72 h or a pre-optimized time depending on the cell line, Matrigel was removed and the inserts were stained with Geimsa stain to enumerate the number of cells that had passed through the tissue culture insert membrane.
(§7) Effect of inhibition of AEG-1 on invasiveness of malignant glioma cells. U87-MG and U251-MG cells were transiently transfected with siRNA for AEG-1 and with control scrambled siRNA using Lipofectamine. 24 hours after transfection cells were seeded in the upper compartment of a Transwell™ unit (Becton Dickinson) and then incubated for 72 h at 37° C. The lower compartment contained 0.5 ml of DMEM and 5% FBS. At the end of the invasion assay, the filters were removed, fixed, and stained.

[7] = system: U251-MG cells; assay: Matrigel invasion assay (Transwell); type: cell-based, human; conditions: 72 h, vs control scrambled siRNA
Experimental: as §6, §7

[8] = system: AEG-1; assay: Western blot of AEG-1 protein after siRNA transfection; type: cell-based, human; conditions: U87-MG and U251-MG cells transiently transfected, 24 hours
Experimental: Western blotting and immunofluorescence microscopy. Whole cell lysates were prepared and Western blotting was performed as described (17). Antibodies used in specific experiments are described in the text or in corresponding figure legends. For immunofluorescence microscopy, IM-PHFA, grown on chamber slides, were probed with anti-AEG-1 and anti-calreticulin primary antibodies and FITC-conjugated anti-chicken and rhodamine-conjugated anti-rabbit secondary antibodies, respectively. Alternatively, IM-PHFA were loaded with Mito-Tracker (Molecular probes) and then immunocytochemistry was performed using anti-AEG-1 antibody and rhodamine-conjugated anti-chicken secondary antibody. Cells were visualized using a Zeiss confocal laser scanning microscope (LSM510) and a 100× objective.
Construction of AEG-1 siRNA. The sequence (5′ AGCAGCCACCAGAGATTGA 3′) (SEQ ID NO:3) used for AEG-1 silencing corresponds to the 449-467 nucleotides of the AEG-1 ORF. The siRNA was constructed with Silencer™ siRNA kit according to manufacturer's protocol. A control scrambled siRNA was used to determine specificity of the inhibition and the sequence 5′ GGGTCGTCTA TAGGGATCGAT 3′(SEQ ID NO:10)
Effect of inhibition of AEG-1 on anchorage independent growth of malignant glioma cells. U87-MG and U251-MG cells were transiently transfected with siRNA for the AEG-1 gene and control scrambled siRNA using Lipofectamine. […]

[9] = system: EAAT2 promoter; conditions: PHFA; cited from earlier work
[10] = system: AEG-1; conditions: PHFA, by 7-days; cited from earlier work
[11] = system: AEG-1 promoter; assay: AEG-1 promoter luciferase reporter in primary human fetal astrocytes; type: cell-based; conditions: PHFA, 0.1 to 100 μM
Excerpt: as §1
(§8) Other mediators of AEG-1 promoter activity. The HIV-Tat (Simm et al Virology 2002;294(1);1-12) and Nef (Lathi et al., Virology. 2003; 310(1):190-196) gene products were tested on the full length AEG-1 promoter at a plasmid expression vector concentration range of 50 to 800 ng/transfection point (FIG. 16). […] Thus, the AEG-1 promoter appears to be responsive to protein products produced by HIV infection of cells.

[12] = system: glutamate transporter (EAAT2); conditions: astrocytes; cited from earlier work
[13] = system: AEG-1 promoter; assay: AEG-1 promoter luciferase reporter co-transfected with HIV Tat or Nef expression constructs; type: cell-based, human; conditions: plasmid expression vector 50 to 800 ng/transfection point
Excerpt: as §1, §8

COc1cccc(-c2cc(=O)c3ccccc3o2)c1N [PD 98059]
AEG-1 promoter activity (luciferase) ([1]; 20 and 50 μM): dose dependent inhibition
AEG-1 promoter activity (luciferase) ([2]; 20 and 50 μM): dose dependent inhibition
AEG-1 promoter activity, responsiveness to inhibitor [3]: not responsive

C[S+]([O-])c1ccc(-c2nc(-c3ccncc3)c(-c3ccc(F)cc3)[nH]2)cc1 (centres unmarked) [SB 203580]
AEG-1 promoter activity (luciferase) ([1]; 5 μM): inhibition of promoter activity was observed
AEG-1 promoter activity (luciferase) ([2]; 5 μM): inhibition of promoter activity was observed

siRNA for AEG-1: siRNA with sequence 5′ AGCAGCCACCAGAGATTGA 3′ (SEQ ID NO:3), corresponds to nucleotides 449-467 of the AEG-1 ORF (listed as DNA, chemistry not given here)
agar cloning efficiency [4]: significantly inhibited
agar cloning efficiency [5]: significantly inhibited
Matrigel invasion [6]: significantly inhibited
Matrigel invasion [7]: significantly inhibited
AEG-1 protein knock down (Western blot) [8]: efficient protein knock down

TNFα
decrease of EAAT2 promoter activity [9]: ~2.5 fold
AEG-1 expression over control [10]: 3 fold

Nc1ncnc2c1nc(Br)n2[C@@H]1O[C@@H]2COP(=O)(O)O[C@H]2[C@H]1O [Bromo-cyclicAMP]
AEG-1 promoter activity (luciferase) [11]: dose responsive stimulation

gp120: HIV-1 gp120 envelope protein used to treat astrocytes
decrease of EAAT2 promoter activity [9]: ~2.5 fold
AEG-1 expression over control [10]: 3 fold
reduction in glutamate uptake [12]: ~60%

Tat gene product: HIV-Tat gene product expressed from a co-transfected plasmid expression vector
stimulation of AEG-1 promoter activity [13]: 1.5 fold
